Reference: patent EP4458804A1, “METHOD FOR PRODUCING AN OBJECT, PHENALEN-1-ONE COMPOUND AND USE THEREOF” (TriOptoTec GmbH, priority 2023, dated 2024)

Experiment: Comparative example 26: highly polar photocatalysts in TPU films, 24 h immersion, film absorption before/after leaching
Assay type: physicochemical
Conditions: 30 min impregnation, 20h airing, immersion in distilled water 24h (procedure A), film absorption maximum before/after
Experimental: Es wurden TPU Folien eingesetzt und mit Imprägnierlösungen enthaltend die folgenden Farbstoffe behandelt. Nach 30 min Einwirkzeit wurden homogen gefärbte Folien erhalten.
Die Ablüftzeit nach Behandlung betrug 20h.
Anschließend wurde ein Belastungstest Immersion mit destilliertem Wasser über 24h durchgeführt (siehe oben beschriebenes Verfahren A) ). Die Folien wurden durch Absorptionsspektroskopie direkt vermessen und die Maximum der Absorption vor/nach Auswaschen verglichen. Es ergaben sich folgende relative Werte, die auf einen starken Austrag der Photokatalysatoren schließen lassen. Die Ergebnisse sind in der Tabelle 63 dargestellt. Tabelle 63: Einbindung von Photokatalysatoren in Kunsttofffolien

Row | Compound | Verlust durch Auswaschen
1 | 2,7,12-Tris(pyridinio-p-tolyl)-17-(p-(methoxymethyl)phenyl) porphycen bromid | > 66%
2 | O=C1C=Cc2cccc3cccc1c23 [Phenalen-1-on (Verb.Bsp. 48)] | > 50%
3 | Cl.Cl.Cl.Cl.Cl.Cl.NCCOc1cc(/C=C/C(=O)CC(=O)/C=C/c2cc(OCCN)c(OCCN)c(OCCN)c2)cc(OCCN)c1OCCN [SACUR-05] | > 70%
